Measured values as given in US9932331B2, “Phenyl tetrahydroisoquinoline compound substituted with heteroaryl” (TAISHO PHARMACEUTICAL CO., LTD, priority 2014, dated 2018).
Counter-ions that a name gives are not always drawn.

Biological target: T1, human NHE3 (Homo sapiens, UniProt P48764)
T1 sequence (P48764 26-834): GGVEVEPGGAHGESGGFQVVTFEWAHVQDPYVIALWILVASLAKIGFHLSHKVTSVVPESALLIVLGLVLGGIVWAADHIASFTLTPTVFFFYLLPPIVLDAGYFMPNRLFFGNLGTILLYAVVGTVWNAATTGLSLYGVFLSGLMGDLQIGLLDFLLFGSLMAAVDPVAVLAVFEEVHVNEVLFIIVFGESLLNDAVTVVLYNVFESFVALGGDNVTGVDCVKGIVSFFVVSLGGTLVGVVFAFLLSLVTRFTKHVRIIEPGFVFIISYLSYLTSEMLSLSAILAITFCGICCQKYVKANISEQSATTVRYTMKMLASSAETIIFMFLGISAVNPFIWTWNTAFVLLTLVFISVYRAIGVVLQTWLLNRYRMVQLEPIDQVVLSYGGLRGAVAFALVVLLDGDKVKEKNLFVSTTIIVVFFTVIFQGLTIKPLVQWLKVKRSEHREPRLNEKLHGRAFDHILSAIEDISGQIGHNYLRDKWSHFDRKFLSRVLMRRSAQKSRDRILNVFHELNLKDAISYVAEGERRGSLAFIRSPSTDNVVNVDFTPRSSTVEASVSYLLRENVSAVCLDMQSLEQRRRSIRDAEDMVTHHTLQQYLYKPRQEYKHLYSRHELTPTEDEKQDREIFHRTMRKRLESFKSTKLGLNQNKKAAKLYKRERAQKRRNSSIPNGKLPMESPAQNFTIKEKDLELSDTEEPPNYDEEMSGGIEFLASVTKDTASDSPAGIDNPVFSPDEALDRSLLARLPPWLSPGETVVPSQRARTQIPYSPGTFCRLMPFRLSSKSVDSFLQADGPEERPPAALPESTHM
Experiment: NHE3 inhibition test (recovery of intracellular pH in cell line stably expressing human NHE3)
Assay type: cell-based
Conditions: OK cells deficient in endogenous NHE stably expressing human NHE3; BCECF fluorescence, initial rate of pH recovery; read-out: human NHE3 inhibitory activity IC50
Protocol: (1) Preparation of Cell Line Deficient in Endogenous NHE
The cell line deficient in endogenous NHE was prepared according to the method of Jacques Pouyssegur et al. (Proc. Natl. Acad. Sci. USA. 1984, Vol. 81, 4833-4837) using opossum kidney (OK) cells (ATCC).
(2) Preparation of Expression Plasmid and Cell Line Stably Expressing Human NHE3
The expression plasmid was constructed by inserting a human NHE3 (SLC9A3, Accession No. NM_004174) cDNA sequence (GeneCopoeia, Inc.) into a pcDNA3.2/V5-DEST vector (Life Technologies Corp.).
The OK cells deficient in endogenous NHE were transfected with the constructed human NHE3 expression plasmid to prepare stably expressing cells. The transfection was carried out by electroporation using a Nucleofector 2b device (Lonza Group Ltd.). A stably expressing cell line was selected in medium supplemented with 500 μg/mL Geneticin (Life Technologies Corp.) and isolated.
NHE3 activity measurement method using cell: The activity was determined by using the NHE3-mediated recovery of intracellular pH occurring after intracellular acidification, as an index. The intracellular pH was measured by a partial modification of the pH-sensitive fluorescent indicator method reported by Tsien et al. (Proc. Natl. Acad. Sci. USA., 1984, 81, 7436-7440).
The cell line stably expressing human NHE3 was inoculated on a poly-D-lysine-coated 96-well plate (Greiner Bio-one) and cultured overnight. […] Then, Hank's balanced salt buffer solution containing 0.25 μM BCECF-AM (Dojindo Laboratories) was added to the cells, which were then incubated at 37° C. for 30 minutes. […] The cells thus incubated in the NH4Cl buffer solution were washed with NH4Cl-free buffer solution (133.8 mM choline chloride, […], 5 mM glucose, 4.7 mM KCl, 1.25 mM CaCl2, 1.25 mM MgCl2, 0.97 mM K2HPO4, 0.23 mM KH2PO4, pH 7.4) to decrease the intracellular pH. After the washing step, 70 μL of a test compound solution prepared with the NH4Cl-free buffer solution was added to the cells, and 70 iμL of sodium ion-containing buffer solution (133.8 mM NaCl, 10 mM HEPES, 5 mM glucose, 4.7 mM KCl, 1.25 mM CaCl2, 1.25 mM MgCl2, 0.97 mM Na2HPO4, 0.23 mM NaH2PO4, pH 7.4) was added thereto in a measurement system FDSS6000 (Hamamatsu Photonics K.K.) to start the recovery of pH. The recovery of intracellular pH was monitored using BCECF fluorescence (excitation wavelength: 480 nm, fluorescence wavelength: 520 to 560 nm), and the initial rate of the pH recovery was plotted. The recovery of pH without test compound was defined as the maximum recovery, and the test compound concentration necessary to inhibit 50% of the maximum recovery was calculated as an IC50 value.

IC50 [nM] | SMILES
2.2 | CN1Cc2c(Cl)cc(Cl)cc2[C@H](c2cccc(-c3cn(CCOCCOCCOCCOCCNC(=O)NCCCCNC(=O)NCCOCCOCCOCCOCCn4cc(-c5cccc([C@@H]6CN(C)Cc7c(Cl)cc(Cl)cc76)c5)nn4)nn3)c2)C1 [Example 7-1, 1,1′-Butane-1,4-diylbis {3-[14-(4-{3-[(4S)-6,8-dichloro-2-methyl-1,2,3,4-tetrahydroisoquinolin-4-yl]phenyl}-1H-1,2,3-triazol-1-yl)-3,6,9,12-tetraoxatetradec-1-yl]urea}hydrochloride]
11 | CN1Cc2c(Cl)cc(Cl)cc2[C@H](c2cccc(-c3cnc(NCCOCCOCCNC(=O)NCCCCNC(=O)NCCOCCOCCNc4ncc(-c5cccc([C@@H]6CN(C)Cc7c(Cl)cc(Cl)cc76)c5)cn4)nc3)c2)C1 [Example 7-3, 1,1′-Butane-1,4-diylbis {3-[2-(2-{2-[(5-{3-[(4S)-6,8-dichloro-2-methyl-1,2,3,4-tetrahydroisoquinolin-4-yl]phenyl}pyrimidin-2-yl)amino]ethoxy}ethoxy)ethyl]urea}hydrochloride]
6.8 | CN1Cc2c(Cl)cc(Cl)cc2[C@H](c2cccc(-c3ccc(NCCOCCOCCNC(=O)NCCCCNC(=O)NCCOCCOCCNc4ccc(-c5cccc([C@@H]6CN(C)Cc7c(Cl)cc(Cl)cc76)c5)cn4)nc3)c2)C1 [Example 7-7, 1,1′-Butane-1,4-diylbis {3-[2-(2-{2-[(5-{3-[(4S)-6,8-dichloro-2-methyl-1,2,3,4-tetrahydroisoquinolin-4-yl]phenyl}pyridin-2-yl)amino]ethoxy}ethoxy)ethyl]urea}]
1080 | CN1Cc2c(Cl)cc(Cl)cc2[C@H](c2cccc(-c3ccc(NCCOCCOCCNC(=O)Nc4ccc(NC(=O)NCCOCCOCCNc5ccc(-c6cccc([C@@H]7CN(C)Cc8c(Cl)cc(Cl)cc87)c6)cn5)cc4)nc3)c2)C1 [Example 7-8, 1,1′-Benzene-1,4-diylbis{3-[2-(2-{2-[(5-{3-[(4S)-6,8-dichloro-2-methyl-1,2,3,4-tetrahydroisoquinolin-4-yl]phenyl}pyridin-2-yl)amino]ethoxy}ethoxy)ethyl]urea}]
7.5 | CN1Cc2c(Cl)cc(Cl)cc2[C@H](c2cccc(-c3cc(OCCOCCOCCNC(=O)NCCCCNC(=O)NCCOCCOCCOc4cc(-c5cccc([C@@H]6CN(C)Cc7c(Cl)cc(Cl)cc76)c5)ncn4)ncn3)c2)C1 [Example 7-12, 1,1′-Butane-1,4-diylbis {3-[2-(2-{2-[(6-{3-[(4S)-6,8-dichloro-2-methyl-1,2,3,4-tetrahydroisoquinolin-4-yl]phenyl}pyrimidin-4-yl)oxy]ethoxy}ethoxy)ethyl]urea} tetrahydrochloride]

Continued, compound first:

SMILES | IC50 [nM]
Cc1nnc(-c2cccc([C@@H]3CN(C)Cc4c(Cl)cc(Cl)cc43)c2)[nH]1 [Example 3-1, (4S)-6,8-Dichloro-2-methyl-4-[3-(3-methyl-1H-1,2,4-triazol-5-yl)phenyl]-1,2,3,4-tetrahydroisoquinoline hydrochloride] | 49.1
Cc1nc(-c2cccc([C@@H]3CN(C)Cc4c(Cl)cc(Cl)cc43)c2)no1 [Example 4-1, (4S)-6,8-Dichloro-2-methyl-4-[3-(5-methyl-1,2,4-oxadiazol-3-yl)phenyl]-1,2,3,4-tetrahydroisoquinoline hydrochloride] | 554
Cc1cc(-c2cccc([C@@H]3CN(C)Cc4c(Cl)cc(Cl)cc43)c2)on1 [Example 5-1, (4S)-6,8-Dichloro-2-methyl-4-[3-(3-methyl-1,2-oxazol-5-yl)phenyl]-1,2,3,4-tetrahydroisoquinoline hydrochloride] | 760
CN1Cc2c(Cl)cc(Cl)cc2[C@H](c2cccc(-c3cn(CCOCCOCCNC(=O)NCCCCNC(=O)NCCOCCOCCn4cc(-c5cccc([C@@H]6CN(C)Cc7c(Cl)cc(Cl)cc76)c5)nn4)nn3)c2)C1 [Example 6-1, 1,1′-Butane-1,4-diylbis[3-(2-{2-[2-(4-{3-[(4S)-6,8-dichloro-2-methyl-1,2,3,4-tetrahydroisoquinolin-4-yl]phenyl}-1H-1,2,3-triazol-1-yl)ethoxy]ethoxy}ethyl)urea]] | 2.4
CN1Cc2c(Cl)cc(Cl)cc2[C@H](c2cccc(-c3cn(CCOCCOCCNC(=O)CCC(=O)NCCOCCOCCn4cc(-c5cccc([C@@H]6CN(C)Cc7c(Cl)cc(Cl)cc76)c5)nn4)nn3)c2)C1 [Example 6-3, N,N′-Bis(2-{2-[2-(4-{3-[(4S)-6,8-dichloro-2-methyl-1,2,3,4-tetrahydroisoquinolin-4-yl]phenyl}-1H-1,2,3-triazol-1-yl)ethoxy]ethoxy}ethyl)butanediamide hydrochloride] | 301
CN1Cc2c(Cl)cc(Cl)cc2[C@H](c2cccc(-c3cn(CCOCCOCCNC(=O)[C@H](O)[C@@H](O)C(=O)NCCOCCOCCn4cc(-c5cccc([C@@H]6CN(C)Cc7c(Cl)cc(Cl)cc76)c5)nn4)nn3)c2)C1 [Example 6-6, (2R,3R)—N,N′-Bis(2-{2-[2-(4-{3-[(4S)-6,8-dichloro-2-methyl-1,2,3,4-tetrahydroisoquinolin-4-yl]phenyl}-1H-1,2,3-triazol-1-yl)ethoxy]ethoxy}ethyl)-2,3-dihydroxybutanediamide hydrochloride] | 75
CN1Cc2c(Cl)cc(Cl)cc2[C@H](c2cccc(-c3cn(CCOCCOCCNC(=O)[C@@H](O)[C@H](O)[C@H](O)[C@@H](O)C(=O)NCCOCCOCCn4cc(-c5cccc([C@@H]6CN(C)Cc7c(Cl)cc(Cl)cc76)c5)nn4)nn3)c2)C1 [Example 6-7, (2R,3S,4R,5S)—N,N′-Bis(2-{2-[2-(4-{3-[(4S)-6,8-dichloro-2-methyl-1,2,3,4-tetrahydroisoquinolin-4-yl]phenyl}-1H-1,2,3-triazol-1-yl)ethoxy]ethoxy}ethyl)-2,3,4,5-tetrahydroxyhexanediamide hydrochloride] | 1.1
CN1Cc2c(Cl)cc(Cl)cc2[C@H](c2cccc(-c3cn(CCOCCOCCOCCNC(=O)NCCNC(=O)NCCNC(=O)NCCOCCOCCOCCn4cc(-c5cccc([C@@H]6CN(C)Cc7c(Cl)cc(Cl)cc76)c5)nn4)nn3)c2)C1 [Example 6-13, 1,1′-[Carbonylbis(iminoethane-2,1-diyl)]bis {3-[2-(2-{2-[2-(4-{3-[(4S)-6,8-dichloro-2-methyl-1,2,3,4-tetrahydroisoquinolin-4-yl]phenyl}-1H-1,2,3-triazol-1-yl)ethoxy]ethoxy}ethoxy)ethyl]urea}hydrochloride] | 2.1
CN1Cc2c(Cl)cc(Cl)cc2[C@H](c2cccc(-c3cc(OCCOCCOCCNC(=O)Nc4ccc(NC(=O)NCCOCCOCCOc5cc(-c6cccc([C@@H]7CN(C)Cc8c(Cl)cc(Cl)cc87)c6)ncn5)cc4)ncn3)c2)C1 [Example 7-11, 1,1′-Benzene-1,4-diylbis {3-[2-(2-(2-{2-[(6-{3-[(4S)-6,8-dichloro-2-methyl-1,2,3,4-tetrahydroisoquinolin-4-yl]phenyl}pyrimidin-4-yl)oxy]ethoxy}ethoxy)ethyl]urea} trifluoroacetate] | 33.5
